Data reported in paper PMC10247784, “Physiological activation of human and mouse bitter taste receptors by bile acids” (Communications Biology, 2023).
Where “and” joins values, the source holds several entries; their conditions need not be identical. Equal values may be shown once.

Target: T1, human TAS2R4 (Homo sapiens, UniProt Q9NYW5)
T1 construct: expressed in transfected cells; host or cells: HEK293T-Gα16gust44
T1 sequence (Q9NYW5 1-299): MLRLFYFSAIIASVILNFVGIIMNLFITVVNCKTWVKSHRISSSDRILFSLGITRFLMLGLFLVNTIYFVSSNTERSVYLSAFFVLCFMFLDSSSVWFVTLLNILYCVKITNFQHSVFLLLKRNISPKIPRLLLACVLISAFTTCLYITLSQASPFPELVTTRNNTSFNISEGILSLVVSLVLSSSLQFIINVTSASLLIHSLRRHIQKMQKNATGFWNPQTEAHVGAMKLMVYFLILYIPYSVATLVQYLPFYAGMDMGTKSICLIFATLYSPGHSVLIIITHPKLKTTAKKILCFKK
Experiment: Calcium imaging assay (FLIPR), HEK293T-Gα16gust44 cells transfected with human TAS2R4
Format: cell-based
Outline: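 Fluo-4 calcium responses; ΔF/F corrected for mock transfection and buffer control; triplicate independent dose-response runs; p < 0.01 threshold.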

C[C@H](CCC(=O)NCCS(=O)(=O)O)[C@H]1CC[C@H]2[C@@H]3CC[C@@H]4C[C@H](O)CC[C@]4(C)[C@H]3CC[C@]12C [Taurolithocholic Acid, taurolithocholic acid]
Efficacy = maximal amplitude (ΔF/F) (TAS2R4, bile acids, mean): 0.1385
Efficacy (maximal amplitude ΔF/F), individual data points (TAS2R4, bile acids, single replicates, listed as TLCA): 0.1344 and 0.1516 and 0.119 and 0.1444 and 0.143
RLU, fluorescence trace (Time (s) 0): 0 RLU
RLU, fluorescence trace (Time (s) 2): -14.866 RLU
RLU, fluorescence trace (Time (s) 4): -10.9022 RLU
RLU, fluorescence trace (Time (s) 6): -0.9261 RLU
RLU, fluorescence trace (Time (s) 8): -7.834 RLU
RLU, fluorescence trace (Time (s) 12): -12.8379 RLU
RLU, fluorescence trace (Time (s) 14): 6.067 RLU
RLU, fluorescence trace (Time (s) 16): 3.969 RLU
RLU, fluorescence trace (Time (s) 18): -13.8081 RLU
RLU, fluorescence trace (Time (s) 18.766 (TCA, TLCA: 18.782)): -6.318 RLU
RLU, fluorescence trace (Time (s) 20.781 (TCA, TLCA: 20.782)): 0.7554 RLU
RLU, fluorescence trace (Time (s) 22.781 (TCA, TLCA: 22.782)): 22.9324 RLU
RLU, fluorescence trace (Time (s) 24.781 (TCA, TLCA: 24.782)): 4.9 RLU
RLU, fluorescence trace (Time (s) 26.781 (TCA, TLCA: 26.782)): 24.977 RLU
RLU, fluorescence trace (Time (s) 28.781 (TCA, TLCA: 28.782)): 22.993 RLU
RLU, fluorescence trace (Time (s) 30.781 (TCA, TLCA: 30.782)): 49.0114 RLU
RLU, fluorescence trace (Time (s) 32.781 (TCA, TLCA: 32.782)): 81.1426 RLU
RLU, fluorescence trace (Time (s) 34.781 (TCA, TLCA: 34.782)): 109.126 RLU
RLU, fluorescence trace (Time (s) 36.781 (TCA, TLCA: 36.782)): 126.942 RLU
RLU, fluorescence trace (Time (s) 38.781 (TCA, TLCA: 38.782)): 159.412 RLU
RLU, fluorescence trace (Time (s) 40.781 (TCA, TLCA: 40.782)): 175 RLU
RLU, fluorescence trace (Time (s) 42.781 (TCA, TLCA: 42.782)): 193.772 RLU
RLU, fluorescence trace (Time (s) 44.781 (TCA, TLCA: 44.782)): 218.413 RLU
RLU, fluorescence trace (Time (s) 46.781 (TCA, TLCA: 46.782)): 198.067 RLU
RLU, fluorescence trace (Time (s) 48.781 (TCA, TLCA: 48.782)): 224.737 RLU
RLU, fluorescence trace (Time (s) 50.781 (TCA, TLCA: 50.782)): 242.508 RLU
RLU, fluorescence trace (Time (s) 52.781 (TCA, TLCA: 52.782)): 256.995 RLU
RLU, fluorescence trace (Time (s) 54.781 (TCA, TLCA: 54.782)): 227.079 RLU
RLU, fluorescence trace (Time (s) 56.781 (TCA, TLCA: 56.782)): 225.961 RLU
RLU, fluorescence trace (Time (s) 58.781 (TCA, TLCA: 58.782)): 271.056 RLU
RLU, fluorescence trace (Time (s) 60.781 (TCA, TLCA: 60.782)): 261.6 RLU
RLU, fluorescence trace (Time (s) 62.781 (TCA, TLCA: 62.782)): 251.574 RLU
RLU, fluorescence trace (Time (s) 64.781 (TCA, TLCA: 64.782)): 292.569 RLU
RLU, fluorescence trace (Time (s) 66.781 (TCA, TLCA: 66.782)): 280.396 RLU
RLU, fluorescence trace (Time (s) 68.781 (TCA, TLCA: 68.782)): 265.03 RLU
RLU, fluorescence trace (Time (s) 70.781 (TCA, TLCA: 70.782)): 284.572 RLU
RLU, fluorescence trace (Time (s) 72.781 (TCA, TLCA: 72.782)): 284.878 RLU
RLU, fluorescence trace (Time (s) 74.781 (TCA, TLCA: 74.782)): 290.176 RLU
RLU, fluorescence trace (Time (s) 76.781 (TCA, TLCA: 76.782)): 292.885 RLU
RLU, fluorescence trace (Time (s) 78.781 (TCA, TLCA: 78.782)): 302.496 RLU
RLU, fluorescence trace (Time (s) 80.781 (TCA, TLCA: 80.782)): 299.577 RLU
RLU, fluorescence trace (Time (s) 82.781 (TCA, TLCA: 82.782)): 289.637 RLU
RLU, fluorescence trace (Time (s) 84.781 (TCA, TLCA: 84.782)): 284.791 RLU
RLU, fluorescence trace (Time (s) 86.781 (TCA, TLCA: 86.782)): 284.228 RLU
RLU, fluorescence trace (Time (s) 88.781 (TCA, TLCA: 88.782)): 289.096 RLU
RLU, fluorescence trace (Time (s) 90.781 (TCA, TLCA: 90.782)): 288.658 RLU
RLU, fluorescence trace (Time (s) 92.781 (TCA, TLCA: 92.782)): 295.597 RLU
RLU, fluorescence trace (Time (s) 94.781 (TCA, TLCA: 94.782)): 300.252 RLU
RLU, fluorescence trace (Time (s) 96.781 (TCA, TLCA: 96.782)): 303.134 RLU
RLU, fluorescence trace (Time (s) 98.781 (TCA, TLCA: 98.782)): 268.467 RLU
RLU, fluorescence trace (Time (s) 100.781 (TCA, TLCA: 100.782)): 282.827 RLU
RLU, fluorescence trace (Time (s) 102.781 (TCA, TLCA: 102.782)): 280.287 RLU
RLU, fluorescence trace (Time (s) 104.781 (TCA, TLCA: 104.782)): 297.596 RLU
RLU, fluorescence trace (Time (s) 106.781 (TCA, TLCA: 106.782)): 261.785 RLU
RLU, fluorescence trace (Time (s) 108.781 (TCA, TLCA: 108.782)): 279.776 RLU
RLU, fluorescence trace (Time (s) 110.781 (TCA, TLCA: 110.782)): 253.834 RLU
RLU, fluorescence trace (Time (s) 112.781 (TCA, TLCA: 112.782)): 272.21 RLU
RLU, fluorescence trace (Time (s) 114.781 (TCA, TLCA: 114.782)): 268.219 RLU
RLU, fluorescence trace (Time (s) 116.781 (TCA, TLCA: 116.782)): 268.998 RLU
RLU, fluorescence trace (Time (s) 118.781 (TCA, TLCA: 118.782)): 262.891 RLU
RLU, fluorescence trace (Time (s) 120.781 (TCA, TLCA: 120.782)): 267.293 RLU
RLU, fluorescence trace (Time (s) 122.781 (TCA, TLCA: 122.782)): 280.896 RLU
RLU, fluorescence trace (Time (s) 124.781 (TCA, TLCA: 124.782)): 273.898 RLU
RLU, fluorescence trace (Time (s) 126.781 (TCA, TLCA: 126.782)): 249.374 RLU
RLU, fluorescence trace (Time (s) 128.781 (TCA, TLCA: 128.782)): 270.269 RLU
RLU, fluorescence trace (Time (s) 130.781 (TCA, TLCA: 130.782)): 267.674 RLU
RLU, fluorescence trace (Time (s) 132.781 (TCA, TLCA: 132.782)): 259.914 RLU
RLU, fluorescence trace (Time (s) 134.781 (TCA, TLCA: 134.782)): 243.112 RLU
RLU, fluorescence trace (Time (s) 136.781 (TCA, TLCA: 136.782)): 250.545 RLU
RLU, fluorescence trace (Time (s) 137.547): 251.257 RLU
RLU, fluorescence trace (Time (s) 143.547): 215.734 RLU
RLU, fluorescence trace (Time (s) 149.547): 237.866 RLU
RLU, fluorescence trace (Time (s) 155.547): 193.672 RLU
RLU, fluorescence trace (Time (s) 161.547): 207.578 RLU
RLU, fluorescence trace (Time (s) 167.547): 205.902 RLU
RLU, fluorescence trace (Time (s) 173.547): 204.036 RLU
RLU, fluorescence trace (Time (s) 179.547): 180.442 RLU
RLU, fluorescence trace (Time (s) 185.547): 185.763 RLU
RLU, fluorescence trace (Time (s) 191.547): 137.563 RLU
RLU, fluorescence trace (Time (s) 197.547): 147.254 RLU
RLU, fluorescence trace (Time (s) 203.547): 133.472 RLU
RLU, fluorescence trace (Time (s) 209.547): 90.5191 RLU
RLU, fluorescence trace (Time (s) 215.547): 65.3811 RLU
RLU, fluorescence trace (Time (s) 221.547): 77.9879 RLU
RLU, fluorescence trace (Time (s) 227.547): 99.7214 RLU
RLU, fluorescence trace (Time (s) 233.547): 126.783 RLU
RLU, fluorescence trace (Time (s) 239.547): 132.165 RLU
RLU, fluorescence trace (Time (s) 245.547): 104.275 RLU
RLU, fluorescence trace (Time (s) 293.547): 136.191 RLU
RLU, fluorescence trace (Time (s) 299.547): 118.82 RLU
RLU, fluorescence trace (Time (s) 305.547): 140.647 RLU
RLU, fluorescence trace (Time (s) 311.547): 122.148 RLU
RLU, fluorescence trace (Time (s) 317.547): 88.8315 RLU
RLU, fluorescence trace (Time (s) 323.547): 111.642 RLU
RLU, fluorescence trace (Time (s) 329.547): 124.756 RLU
RLU, fluorescence trace (Time (s) 335.547): 109.477 RLU
RLU, fluorescence trace (Time (s) 341.547): 98.825 RLU
RLU, fluorescence trace (Time (s) 347.547): 92.346 RLU
RLU, fluorescence trace (Time (s) 353.547): 124.878 RLU
RLU, fluorescence trace (Time (s) 359.547): 119.545 RLU
Activation threshold concentration TAS2R4 (lowest concentration with significantly increased fluorescence vs empty vector (p < 0.01)): 1 µM
